# Measured values as given in paper PMC6017357, “In Vitro Inhibitory Effects of Synthetic Cannabinoid EAM-2201 on Cytochrome P450 and UDP-Glucuronosyltransferase Enzyme Activities in Human Liver Microsomes” (Molecules : A Journal of Synthetic Chemistry and Natural …, 2018).
# pIC50: −log10 of the molar value.
# Target: CYP2C9 (Homo sapiens, UniProt P11712)
# Assay: CYP2C9-catalyzed diclofenac 4′-hydroxylation in human liver microsomes (IC50 and time-dependent inhibition)
# Assay type: in vitro ADME
# Design: from tissue; host or cells: ultrapooled human liver microsomes
# Method: The inhibitory potential (IC50 values) of EAM-2201 on CYP1A2, CYP2A6, CYP2C8, CYP2C9, CYP2C19, CYP2D6 and CYP3A4 were evaluated using ultrapooled human liver microsomes and a cocktail of seven CYP substrates followed by LC-tandem mass spectrometry (LC-MS/MS) as previously described. Each incubation mixture was prepared in a total volume of 100 µL as follows: pooled human liver microsomes (5.2 pmol CYP), 1.0 mM NADPH, 10 mM magnesium chloride, 50 mM potassium phosphate buffer (pH 7.4), various concentrations of EAM-2201 in DMSO (final concentrations of 0.1–50 µM, 0.5% DMSO) and a cocktail of seven CYP probe substrates in 50% acetonitrile (0.5% acetonitrile), including 50 µM phenacetin, 2.5 µM coumarin, 2.0 µM amodiaquine, 10 µM diclofenac, 100 µM [S]-mephenytoin, 5 µM bufuralol and 2.5 µM midazolam in 50% acetonitrile. After a 3-min preincubation at 37 °C, the reactions were initiated by adding NADPH and incubation proceeded for 15 min at 37 °C in a shaking water bath. The reactions were stopped by adding 100 µL of ice-cold methanol containing internal standards (^13C2,^15N-acetaminophen for acetaminophen and N-desethylamodiaquine; d9-1′-hydroxybufuralol for 4′-hydroxydiclofenac, 7-hydroxycoumarin, 4′-hydroxymephenytoin, 1′-hydroxybufuralol and 1′-hydroxy-midazolam). The incubation mixtures were centrifuged at 13,000× g for 4 min at 4 °C and 50 µL of each supernatant was diluted in 50 µL of water. Aliquots (5 µL) of the diluted supernatants were analyzed using LC-MS/MS. All assays were performed in triplicate and the mean values were used in calculations. […] Each reaction was initiated by adding the seven-CYP probe substrate cocktail described above.
# The time-dependent inhibitory effects of EAM-2201 on CYP2C8, CYP2C9, CYP2C19 and CYP3A4 activities in ultrapooled human liver microsomes were evaluated using time- and concentration-dependent inhibition assays. Ultrapooled human liver microsomes (26.0 pmol CYP) were pre-incubated with various concentrations of EAM-2201 in DMSO (0.5% DMSO) in 50 mM potassium phosphate buffer (pH 7.4) in the presence of NADPH for predetermined time periods: 5–15 min for CYP2C8 activity, 5–20 min for CYP2C9 activity and 15–40 min for CYP2C19 and CYP3A4 activities. […] Aliquots (5 µL) of the diluted supernatants were analyzed using LC-MS/MS.
# The metabolites formed from CYP substrates were simultaneously quantified using our previously described LC-MS/MS method. […]
# Chain of CYP2C9 (P11712 whole entry): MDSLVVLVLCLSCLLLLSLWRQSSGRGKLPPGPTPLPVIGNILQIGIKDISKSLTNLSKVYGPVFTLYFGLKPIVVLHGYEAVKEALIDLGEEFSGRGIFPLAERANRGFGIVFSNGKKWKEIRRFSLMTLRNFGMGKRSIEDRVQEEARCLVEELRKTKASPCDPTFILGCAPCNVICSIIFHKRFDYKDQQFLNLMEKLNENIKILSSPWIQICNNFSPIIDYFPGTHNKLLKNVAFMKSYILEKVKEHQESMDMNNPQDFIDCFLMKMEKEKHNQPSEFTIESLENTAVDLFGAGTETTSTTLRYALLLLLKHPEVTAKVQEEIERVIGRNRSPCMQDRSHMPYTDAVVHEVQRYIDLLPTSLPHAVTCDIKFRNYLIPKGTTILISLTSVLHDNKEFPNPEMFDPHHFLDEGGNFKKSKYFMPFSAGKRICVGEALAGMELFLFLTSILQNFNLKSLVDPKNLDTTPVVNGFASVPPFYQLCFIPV
smiles,measurement,setting,value
"CCc1ccc(C(=O)c2cn(CCCCCF)c3ccccc23)c2ccccc12 [EAM-2201, (4-ethyl-1-naphthalenyl)[1-(5-fluoropentyl)-1H-indol-3-yl]-methanone]",pIC50,,5.17
same,"inactivation efficiency (kinact/Ki), CYP2C9",human liver microsomes,257 M⁻¹ s⁻¹
same,kinact,"human, ultrapooled human liver microsomes, pH 7.4, probe diclofenac (10 µM), 4′-hydroxylation, read-out: kinact, time-dependent inhibition of CYP2C9 diclofenac 4′-hydroxylase (converted)",0.00077 s⁻¹
same,inhibition of CYP2C9-catalyzed diclofenac 4′-hydroxylation,"up to 50 µM, without 30-min preincubation, human liver microsomes",negligibly inhibited
